Converted amounts (≈) assume the structure as drawn. Read-outs that look alike come from different tables or passages of the source.
What was measured:
[1] = tested on: Corynebacterium pyogenes C-21; assay: In vitro antibacterial activity (MIC, agar dilution method); type: cell-based
Experimental: (§1) The minimum inhibitory concentrations (MIC, μg/ml) of the following compounds in vitro were measured by the agar dilution method of [Chemotherapy, Vol. 22, No. 16, page 1126 (1974)].

[2] = tested on: Enterobacter cloacae P-2540; assay: as above; type: cell-based
Experimental: as §1

[3] = tested on: Escherichia coli NIHJ JC-2; assay: as above; type: cell-based
Experimental: as §1

Escherichia coli P-140a = assay: as above; type: cell-based; settings: read-out: minimum inhibitory concentration (MIC)
Experimental: as §1

Escherichia coli P-5101 [4] = assay: as above; type: cell-based
Experimental: as §1

[5] = tested on: Klebsiella pneumoniae No. 13; assay: as above; type: cell-based
Experimental: as §1

Proteus mirabilis P-2381 = assay: as above; type: cell-based
Experimental: as §1

Proteus morganii Kono = assay: as above; type: cell-based; settings: Morganella morganii, read-out: minimum inhibitory concentration (MIC)
Experimental: as §1

[6] = tested on: Pseudomonas aeruginosa No. 12; assay: as above; type: cell-based
Experimental: as §1

[7] = tested on: Pseudomonas aeruginosa Tsuchiijima; assay: as above; type: cell-based; settings: read-out: minimum inhibitory concentration (MIC)
Experimental: as §1

[8] = tested on: Salmonella enteritidis No. 1891; assay: as above; type: cell-based; settings: Salmonella enterica, read-out: minimum inhibitory concentration (MIC)
Experimental: as §1

[9] = tested on: Salmonella typhimurium S-9; assay: as above; type: cell-based; settings: Salmonella enterica, read-out: minimum inhibitory concentration (MIC)
Experimental: as §1

[10] = tested on: Serratia marcescens IFO 3736; assay: as above; type: cell-based
Experimental: as §1

Shigella flexneri 2a = assay: as above; type: cell-based; settings: read-out: minimum inhibitory concentration (MIC)
Experimental: as §1

[11] = tested on: Shigella flexneri 4a P-330; assay: as above; type: cell-based; settings: 4AP330, read-out: minimum inhibitory concentration (MIC)
Experimental: as §1

[12] = tested on: Staphylococcus aureus 209P JC-1; assay: as above; type: cell-based; settings: read-out: minimum inhibitory concentration (MIC)
Experimental: as §1

[13] = tested on: Staphylococcus aureus No. 50774; assay: as above; type: cell-based
Experimental: as §1

[14] = tested on: Staphylococcus aureus No. 80; assay: as above; type: cell-based
Experimental: as §1

[15] = tested on: Staphylococcus aureus Smith; assay: as above; type: cell-based; settings: read-out: minimum inhibitory concentration (MIC)
Experimental: as §1

[16] = tested on: Staphylococcus epidermidis No. 8; assay: as above; type: cell-based
Experimental: as §1

[17] = tested on: Streptococcus faecalis P-2473; assay: as above; type: cell-based; settings: Enterococcus faecalis, P2473, read-out: minimum inhibitory concentration (MIC)
Experimental: as §1

[18] = tested on: Streptococcus pyogenes 65A; assay: as above; type: cell-based; settings: read-out: minimum inhibitory concentration (MIC)
Experimental: as §1

Escherichia coli P-5101 [19] = assay: In vivo efficacy against systemic infections in mice (intraperitoneal infection); design: species or system male mice (ddY); settings: P5101, 168 h, po, twice, about 5 minutes and 6 hours after intraperitoneal infection, observed 7 days
Experimental: (§2) Each of the solutions was orally administered to mice infected with each of test organisms under the conditions described below, and the medium effective doses (ED50) obtained are shown in Table II. Male mice (ddY) weighing about 20 g (3) Escherichia coli P-5101: Intraperitoneal infection with about 9×10^6 cells per mouse suspended in trypto-soy broth with 4% mucin. Twice, about 5 minutes and 6 hours after infection. |Escherichia coli P-5101 for 7 days | The numerals in the table show ED50 (mg/kg). ED50 values were | calculated in accordance with the BehrensKaerber method (Arch. Exp. Path. | Pharm., 162, 480 (1931)). | po: oral administration.

[20] = tested on: Pseudomonas aeruginosa No. 12; assay: as above; design: species or system male mice (ddY); settings: NO.12, 168 h, po, twice, about 5 minutes and 6 hours after intraperitoneal infection, observed 7 days
Experimental: as §2, with “(4) Pseudomonas aeruginosa No. 12:” for “(3) Escherichia coli P-5101:”, “5×10^3” for “9×10^6”, “days |Pseudomonas aeruginosa No. 12” for “days”

[21] = C21, Corynebacterium pyogenes C-21, agar dilution, read-out: minimum inhibitory concentration (MIC)
[22] = P2540, Enterobacter cloacae P-2540, agar dilution, read-out: minimum inhibitory concentration (MIC)
[23] = NIHJJC2, Escherichia coli NIHJ JC-2, agar dilution, read-out: minimum inhibitory concentration (MIC)
[24] = Escherichia coli, P5101, read-out: minimum inhibitory concentration (MIC)
[25] = Klebsiella pneumoniae No. 13, agar dilution, read-out: minimum inhibitory concentration (MIC)
[26] = P2381, Proteus mirabilis P-2381, agar dilution, read-out: minimum inhibitory concentration (MIC)
[27] = Proteus morganii Kono, agar dilution
[28] = Pseudomonas aeruginosa No. 12, agar dilution, read-out: minimum inhibitory concentration (MIC)
[29] = Pseudomonas aeruginosa Tsuchiijima, agar dilution
[30] = Salmonella enteritidis No. 1891, agar dilution
[31] = Salmonella typhimurium S-9, agar dilution
[32] = IFO3736, Serratia marcescens IFO 3736, agar dilution, read-out: minimum inhibitory concentration (MIC)
[33] = Staphylococcus aureus, NO.50774, read-out: minimum inhibitory concentration (MIC)
[34] = Staphylococcus aureus, NO.80, read-out: minimum inhibitory concentration (MIC)
[35] = Staphylococcus epidermidis, NO.8, read-out: minimum inhibitory concentration (MIC)
[36] = Streptococcus pyogenes 65A, agar dilution
[37] = Enterobacter cloacae, P2540, read-out: minimum inhibitory concentration (MIC)
[38] = Escherichia coli, NIHJJC2, read-out: minimum inhibitory concentration (MIC)
[39] = P140A, Escherichia coli P-140a, agar dilution
[40] = P5101, Escherichia coli P-5101, agar dilution, read-out: minimum inhibitory concentration (MIC)
[41] = Klebsiella pneumoniae, NO.13, read-out: minimum inhibitory concentration (MIC)
[42] = Pseudomonas aeruginosa, NO.12, read-out: minimum inhibitory concentration (MIC)
[43] = Serratia marcescens, IFO3736, read-out: minimum inhibitory concentration (MIC)
[44] = Staphylococcus aureus 209P JC-1, agar dilution
[45] = Staphylococcus aureus No. 50774, agar dilution, read-out: minimum inhibitory concentration (MIC)
[46] = Staphylococcus aureus Smith, agar dilution
[47] = Staphylococcus aureus No. 80, agar dilution, read-out: minimum inhibitory concentration (MIC)
[48] = Staphylococcus epidermidis No. 8, agar dilution, read-out: minimum inhibitory concentration (MIC)
[49] = Corynebacterium pyogenes, C21, read-out: minimum inhibitory concentration (MIC)

Compound	MIC [1, 21]	MIC [2, 22]	MIC [3, 23]	MIC [5, 25]	MIC (Proteus mirabilis P-2381; [26])	MIC (Proteus morganii Kono; [27])	MIC [8, 30]	MIC [9, 31]	MIC [10, 32]	MIC (Shigella flexneri 2a)	MIC [11]	MIC ([12]; Staphylococcus aureus, 209P)	MIC [13, 33]	MIC [14, 34]	MIC ([15]; Staphylococcus aureus)	MIC [16, 35]	MIC [17]	MIC (Escherichia coli P-140a; [39])	MIC (Escherichia coli P-5101 [4]; [40])	MIC [6, 42]	further results
CCn1cc(C(=O)O)c(=O)c2cnc(N3CCCC3)nc21 [Compound E, 8-Ethyl-5,8-dihydro-5-oxo-2-(1-pyrrolidinyl)pyrido[2,3-d]pyrimidine-6-carboxylic acid]	25 µg/mL (≈ 86.7 µM)	25 µg/mL (≈ 86.7 µM)	25 µg/mL (≈ 86.7 µM)	25 µg/mL (≈ 86.7 µM)	50 µg/mL (≈ 173 µM)	25 µg/mL (≈ 86.7 µM)	25 µg/mL (≈ 86.7 µM)	25 µg/mL (≈ 86.7 µM)	50 µg/mL (≈ 173 µM)	12.5 µg/mL (≈ 43.4 µM)	12.5 µg/mL (≈ 43.4 µM)	12.5 µg/mL (≈ 43.4 µM)	12.5 µg/mL (≈ 43.4 µM)	12.5 µg/mL (≈ 43.4 µM)	12.5 µg/mL (≈ 43.4 µM)	12.5 µg/mL (≈ 43.4 µM)	> 200 µg/mL				MIC (Escherichia coli P-140a; Escherichia coli): 12.5 µg/mL (≈ 43.4 µM); MIC (Escherichia coli P-5101 [4]; [24]): 12.5 µg/mL (≈ 43.4 µM); MIC [6, 28]: 100 µg/mL (≈ 347 µM); MIC [7, 29]: 100 µg/mL (≈ 347 µM); MIC [18, 36]: 200 µg/mL (≈ 694 µM)
CCn1cc(C(=O)O)c(=O)c2cc(F)c(N3CCCC3)nc21 [Compound C, 1-Ethyl-6-fluoro-1,4-dihydro-4-oxo-7-(1-pyrrolidinyl)-1,8-naphthyridine-3-carboxylic acid]	0.78 µg/mL (≈ 2.55 µM)				6.56 µg/mL (≈ 21.5 µM)		0.39 µg/mL (≈ 1.28 µM)	0.78 µg/mL (≈ 2.55 µM)		1.56 µg/mL (≈ 5.11 µM)	3.13 µg/mL (≈ 10.3 µM)			0.2 µg/mL (≈ 0.655 µM)		0.39 µg/mL (≈ 1.28 µM)	6.25 µg/mL (≈ 20.5 µM)	0.78 µg/mL (≈ 2.55 µM)	0.78 µg/mL (≈ 2.55 µM)	3.13 µg/mL (≈ 10.3 µM)	MIC [2, 37]: 1.56 µg/mL (≈ 5.11 µM); MIC [3, 38]: 1.56 µg/mL (≈ 5.11 µM); MIC [5, 41]: 1.56 µg/mL (≈ 5.11 µM); MIC (Proteus morganii Kono): 1.56 µg/mL (≈ 5.11 µM); MIC ([7]; Pseudomonas aeruginosa): 3.13 µg/mL (≈ 10.3 µM); MIC [10, 43]: 3.13 µg/mL (≈ 10.3 µM); MIC [12, 44]: 0.39 µg/mL (≈ 1.28 µM); MIC [13, 45]: 0.2 µg/mL (≈ 0.655 µM); MIC [15, 46]: 0.39 µg/mL (≈ 1.28 µM); MIC ([18]; Streptococcus pyogenes, 65A): 3.13 µg/mL (≈ 10.3 µM); ED50 (Escherichia coli P-5101 [19]): > 50 mg/kg; ED50 [20]: > 100 mg/kg
CCn1cc(C(=O)O)c(=O)c2cc(Cl)c(N3CCCC3)nc21 [Compound B, 6-Chloro-1-ethyl-1,4-dihydro-4-oxo-7-(1-pyrrolidinyl)-1,8-naphthyridine-3-carboxylic acid]	50 µg/mL (≈ 155 µM)	50 µg/mL (≈ 155 µM)	50 µg/mL (≈ 155 µM)	> 100 µg/mL	> 100 µg/mL	> 100 µg/mL	25 µg/mL (≈ 77.7 µM)	50 µg/mL (≈ 155 µM)	> 100 µg/mL	50 µg/mL (≈ 155 µM)	> 100 µg/mL						> 200 µg/mL	50 µg/mL (≈ 155 µM)	50 µg/mL (≈ 155 µM)		MIC [6, 28]: > 100 µg/mL; MIC [7, 29]: > 100 µg/mL; MIC [12, 44]: 12.5 µg/mL (≈ 38.8 µM); MIC [13, 45]: 6.25 µg/mL (≈ 19.4 µM); MIC [14, 47]: 6.25 µg/mL (≈ 19.4 µM); MIC [15, 46]: 6.25 µg/mL (≈ 19.4 µM); MIC [16, 48]: 3.13 µg/mL (≈ 9.73 µM); MIC [18, 36]: 50 µg/mL (≈ 155 µM)
CCn1cc(C(=O)O)c(=O)c2ccc(C)nc21 [Compound D, 1-Ethyl-1,4-dihydro-7-methyl-4-oxo-1,8-naphthyridine-3-carboxylic acid]										6.25 µg/mL (≈ 26.9 µM)	3.13 µg/mL (≈ 13.5 µM)	100 µg/mL (≈ 431 µM)	50 µg/mL (≈ 215 µM)	25 µg/mL (≈ 108 µM)	25 µg/mL (≈ 108 µM)	25 µg/mL (≈ 108 µM)	> 200 µg/mL	1.56 µg/mL (≈ 6.72 µM)		200 µg/mL (≈ 861 µM)	MIC [1, 49]: > 200 µg/mL; MIC [2, 37]: 6.25 µg/mL (≈ 26.9 µM); MIC [3, 38]: 12.5 µg/mL (≈ 53.8 µM); MIC (Escherichia coli P-5101 [4]; [24]): 3.13 µg/mL (≈ 13.5 µM); MIC [5, 41]: 12.5 µg/mL (≈ 53.8 µM); MIC (Proteus mirabilis P-2381; Proteus mirabilis, P2381, read-out: minimum inhibitory concentration (MIC)): 6.25 µg/mL (≈ 26.9 µM); MIC (Proteus morganii Kono): 6.25 µg/mL (≈ 26.9 µM); MIC ([7]; Pseudomonas aeruginosa): 200 µg/mL (≈ 861 µM); MIC ([8]; ENTERITIDIS): 3.13 µg/mL (≈ 13.5 µM); MIC ([9]; TYPHIMURIUM): 3.13 µg/mL (≈ 13.5 µM); MIC [10, 43]: 6.25 µg/mL (≈ 26.9 µM); MIC ([18]; Streptococcus pyogenes, 65A): > 200 µg/mL
CCn1cc(C(=O)O)c(=O)c2ccc(N3CCCC3)nc21 [Compound A, 1-Ethyl-1,4-dihydro-4-oxo-7-(1-pyrrolidinyl)-1,8-naphthyridine-3-carboxylicacid]		> 200 µg/mL	25 µg/mL (≈ 87 µM)	> 200 µg/mL	> 200 µg/mL	> 200 µg/mL		50 µg/mL (≈ 174 µM)	> 200 µg/mL	> 200 µg/mL	6.25 µg/mL (≈ 21.8 µM)	12.5 µg/mL (≈ 43.5 µM)	6.25 µg/mL (≈ 21.8 µM)		6.25 µg/mL (≈ 21.8 µM)		> 200 µg/mL	3.13 µg/mL (≈ 10.9 µM)	50 µg/mL (≈ 174 µM)	> 200 µg/mL	MIC [1, 49]: > 200 µg/mL; MIC ([7]; Pseudomonas aeruginosa): > 200 µg/mL; MIC ([8]; ENTERITIDIS): 6.25 µg/mL (≈ 21.8 µM); MIC [14, 47]: 3.13 µg/mL (≈ 10.9 µM); MIC [16, 48]: 3.13 µg/mL (≈ 10.9 µM); MIC ([18]; Streptococcus pyogenes, 65A): > 200 µg/mL

From patent publication US4341784A, “Naphthyridine derivatives” (priority 1979, dated 1982)
